Results as given in patent US9758561B2 (priority 2014, dated 2017).
Read-outs that look alike come from different tables or passages of the source.

Tests used:
[1] = biological target: T1, human glucagon receptor (Homo sapiens, UniProt P47871); experiment: cAMP response of HEK-293 cells stably expressing human glucagon receptor (HTRF); format: cell-based; details: Table 6; read-out: EC50 hGlucagon-R
T1 construct: expressed in transfected cells; host or cells: HEK-293
Experimental: (§1) For preparation, cells were split into T175 culture flasks and grown overnight to near confluency in medium (DMEM/10% FBS). Medium was then removed and cells washed with PBS lacking calcium and magnesium, followed by proteinase treatment with accutase (Sigma-Aldrich cat. no. A6964). Detached cells were washed and resuspended in assay buffer (1×HBSS; 20 mM HEPES, 0.1% BSA, 2 mM IBMX) and cellular density determined. They were then diluted to 400000 cells/ml and 25 μl-aliquots dispensed into the wells of 96-well plates. For measurement, 25 μl of test compound in assay buffer was added to the wells, followed by incubation for 30 minutes at room temperature. […] Potencies of peptidic compounds at the GLP-1, glucagon and GIP receptors were determined by exposing cells expressing human glucagon receptor (hGlucagon R), human GIP receptor (hGIP-R) or human GLP-1 receptor (hGLP-1R) to the listed compounds at increasing concentrations and measuring the formed cAMP as described in Methods.

[2] = Solubility testing in buffer (HPLC-UV); format: physicochemical
Experimental: Prior to the testing of solubility and stability of a peptide batch, its purity (HPLC-UV) was determined. […] Therefore, solutions from solid samples were prepared in different buffer systems with a concentration of 10 mg/mL compound based on the previously determined % purity. HPLC-UV was performed after 2 h of gentle agitation from the supernatant, which was obtained by 20 min of centrifugation at 4500 rpm. […] This analysis also served as starting point (t0) for the stability testing.

[3] = biological target: T2, human GLP-1 receptor (Homo sapiens, UniProt P43220); experiment: cAMP response of HEK-293 cells stably expressing human GLP-1 receptor (HTRF); format: cell-based; details: Table 6; read-out: EC50 hGLP-1R
T2 construct: expressed in transfected cells; host or cells: HEK-293
How it was run: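 HEK-293 cells stably expressing the receptor were taken up in HBSS/20 mM HEPES/0.1% BSA with 2 mM IBMX at 400000 cells/ml. They were exposed to increasing concentrations of peptide for 30 minutes at room temperature, and formed cAMP was measured by HTRF.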

[4] = biological target: T3, human GIP receptor (Homo sapiens, UniProt P48546); experiment: cAMP response of HEK-293 cells stably expressing human GIP receptor (HTRF); format: cell-based; details: Table 6; read-out: EC50 hGIP-R
T3 construct: expressed in transfected cells; host or cells: HEK-293
T3 sequence (P48546 22-466): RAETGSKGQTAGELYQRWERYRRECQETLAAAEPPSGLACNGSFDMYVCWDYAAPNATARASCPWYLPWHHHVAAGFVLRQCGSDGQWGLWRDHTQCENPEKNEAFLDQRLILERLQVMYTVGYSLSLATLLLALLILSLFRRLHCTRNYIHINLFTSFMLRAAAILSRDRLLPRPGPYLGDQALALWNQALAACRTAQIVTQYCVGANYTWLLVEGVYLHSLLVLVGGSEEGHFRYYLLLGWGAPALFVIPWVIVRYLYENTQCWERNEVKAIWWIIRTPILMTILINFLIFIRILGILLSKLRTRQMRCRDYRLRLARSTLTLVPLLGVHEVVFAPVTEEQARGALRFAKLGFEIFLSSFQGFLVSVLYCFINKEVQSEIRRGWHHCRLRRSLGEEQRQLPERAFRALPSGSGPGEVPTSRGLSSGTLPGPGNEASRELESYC
Experimental: as §1

[5] = Stability testing in solution, 7 days at 40° C. (HPLC-UV); format: physicochemical
Experimental: After that time course, the sample was centrifuged for 20 min at 4500 rpm and 0.2 μL of the supernatant were analysed with HPLC-UV.
For determination of the amount of the remaining peptide, the peak areas of the target compound at t0 and t7 were compared, resulting in “% remaining peptide”, following the equation % remaining peptide=[(peak area peptide t7)×100]/peak area peptide t0.
The stability is expressed as “% remaining peptide”.

T2 sequence (P43220 24-463): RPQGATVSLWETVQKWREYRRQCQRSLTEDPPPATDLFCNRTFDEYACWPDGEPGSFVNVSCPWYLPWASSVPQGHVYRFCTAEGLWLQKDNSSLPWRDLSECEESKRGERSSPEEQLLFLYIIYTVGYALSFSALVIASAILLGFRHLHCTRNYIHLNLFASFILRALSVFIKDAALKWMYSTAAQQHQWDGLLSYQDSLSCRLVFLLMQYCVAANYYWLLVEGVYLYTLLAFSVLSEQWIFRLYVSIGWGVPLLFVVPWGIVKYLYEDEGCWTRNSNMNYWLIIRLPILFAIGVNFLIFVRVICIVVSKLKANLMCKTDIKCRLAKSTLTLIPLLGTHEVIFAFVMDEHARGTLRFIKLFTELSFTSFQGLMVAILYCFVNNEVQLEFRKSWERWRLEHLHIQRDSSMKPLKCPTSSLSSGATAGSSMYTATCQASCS
T1 sequence (P47871 26-477): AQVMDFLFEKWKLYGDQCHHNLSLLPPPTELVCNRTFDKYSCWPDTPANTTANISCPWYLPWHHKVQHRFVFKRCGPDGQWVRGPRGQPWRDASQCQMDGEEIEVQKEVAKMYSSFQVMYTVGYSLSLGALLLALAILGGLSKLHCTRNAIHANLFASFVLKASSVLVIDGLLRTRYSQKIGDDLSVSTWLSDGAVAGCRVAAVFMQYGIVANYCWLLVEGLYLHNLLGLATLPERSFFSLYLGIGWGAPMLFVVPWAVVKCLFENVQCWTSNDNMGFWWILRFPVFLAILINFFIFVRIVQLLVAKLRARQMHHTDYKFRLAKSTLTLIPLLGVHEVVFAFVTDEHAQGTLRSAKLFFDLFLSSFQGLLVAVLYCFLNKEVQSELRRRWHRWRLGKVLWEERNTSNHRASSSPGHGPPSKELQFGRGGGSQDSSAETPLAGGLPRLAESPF

**Q.** For CCCCCCCCCCCCCCCC(=O)N[C@@H](CCC(=O)NCCCC[C@H](NC(=O)[C@H](CCC(N)=O)NC(=O)[C@H](CCCCN)NC(=O)[C@H](CO)NC(=O)[C@H](CC(C)C)NC(=O)[C@H](CC(=O)O)NC(=O)[C@H](CO)NC(=O)[C@@H](NC(=O)[C@H](Cc1ccccc1)NC(=O)[C@@H](NC(=O)CNC(=O)[C@H](CCC(N)=O)NC(=O)[C@@H](CO)NC(=O)[C@@H](N)Cc1c[nH]cn1)[C@@H](C)O)[C@@H](C)O)C(=O)N[C@@H](CC(=O)O)C(=O)N[C@@H](CCC(=O)O)C(=O)N[C@@H](CCC(=O)O)C(=O)N[C@@H](C)C(=O)N[C@@H](C)C(=O)N[C@@H](CCCNC(=N)N)C(=O)N[C@@H](CC(C)C)C(=O)N[C@@H](Cc1ccccc1)C(=O)N[C@H](C(=O)N[C@@H](CCC(=O)O)C(=O)N[C@@H](Cc1c[nH]c2ccccc12)C(=O)N[C@@H](CC(C)C)C(=O)NC(C)(C)C(=O)N[C@@H](C)C(=O)NCC(=O)NCC(=O)N1CCC[C@H]1C(=O)N[C@@H](CO)C(=O)N[C@@H](CO)C(=O)NCC(=O)N[C@@H](C)C(=O)N1CCC[C@H]1C(=O)N1CCC[C@H]1C(=O)N1CCC[C@H]1C(=O)N[C@@H](CO)C(N)=O)[C@@H](C)CC)C(=O)O [SEQ ID NO: 14, H-dSer-Q-G-T-F-T-S-D-L-S-K-Q-K(γE-x53)-D-E-E-A-A-R-L-F-I-E-W-L-Aib-A-G-G-P-S-S-G-A-P-P-P-S-NH2], which EC50 [1] is on record?
**A.** 0.0247 nM

**Q.** And the solubility at 2 h ([2]; pH 4.5, target concentration 10 mg/ml, read-out: solubility pH 4.5)?
**A.** > 8000 µg/mL

**Q.** And the solubility at 2 h ([2]; pH 7.4, target concentration 10 mg/ml, read-out: solubility pH 7.4)?
**A.** > 8000 µg/mL

**Q.** And the EC50 [3]?
**A.** 0.0021 nM

**Q.** What about the EC50 [4] of the same compound?
**A.** 5.36 nM

**Q.** And the “Stability pH 4.5” value ([5]; pH 4.5, 7 days at 40° C. in solution)?
**A.** 94.7 % remaining peptide

**Q.** And the “Stability pH 7.4” value ([5]; pH 7.4, 7 days at 40° C. in solution)?
**A.** 96.3 % remaining peptide
